Data: patent US12077503B2, “Substituted cyclic amides and their use as herbicides” (FMC CORPORATION, priority 2015, dated 2024)

Tests used:
Format in all cases: in vivo
[1] = system: wheat (Triticum aestivum); assay: Test A postemergence; conditions: Triticum aestivum, post-emergence, 240 h; for plant injury at 125 g/ha: 125 g ai/ha, postemergence, visual injury rating after approximately 10 d, read-out: Wheat plant response rating (0 to 100 scale, 0 no effect, 100 complete control); for plant injury at 31 g/ha: Postemergence, 31 g ai/ha, visual injury after approx. 10 d, 0 to 100 scale, 0 no effect, 100 complete control, read-out: Plant response rating, Wheat
Procedure, shortened: (§1)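 Preemergence directed soil spray on seeded pots, or postemergence application to plants 2–10 cm, one- to two-leaf. Solvent mixture non-phytotoxic, with surfactant. Scored ~10 d later, visually, 0–100 vs untreated.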

[2] = system: ragweed (common ragweed, Ambrosia elatior); assay: Test A postemergence; conditions: Ambrosia artemisiifolia, post-emergence, 240 h; for pest or weed control at 125 g/ha: 125 g ai/ha, postemergence, visual injury rating after approximately 10 d, read-out: Ragweed plant response rating (0 to 100 scale, 0 no effect, 100 complete control); for pest or weed control at 31 g/ha: Postemergence, 31 g ai/ha, visual injury after approx. 10 d, 0 to 100 scale, 0 no effect, 100 complete control, read-out: Plant response rating, Ragweed
Procedure, shortened: as §1

Kochia (Kochia scoparia) [3] = assay: Test A postemergence; conditions: Bassia scoparia, post-emergence, 240 h; for pest or weed control at 125 g/ha: 125 g ai/ha, postemergence, visual injury rating after approximately 10 d, read-out: Kochia plant response rating (0 to 100 scale, 0 no effect, 100 complete control); for pest or weed control at 31 g/ha: Postemergence, 31 g ai/ha, visual injury after approx. 10 d, 0 to 100 scale, 0 no effect, 100 complete control, read-out: Plant response rating, Kochia
Procedure, shortened: as §1

[4] = system: pigweed (Amaranthus retroflexus); assay: Test A postemergence; conditions: Amaranthus retroflexus, post-emergence, 240 h; for pest or weed control at 125 g/ha: 125 g ai/ha, postemergence, visual injury rating after approximately 10 d, read-out: Pigweed plant response rating (0 to 100 scale, 0 no effect, 100 complete control); for pest or weed control at 31 g/ha: Postemergence, 31 g ai/ha, visual injury after approx. 10 d, 0 to 100 scale, 0 no effect, 100 complete control, read-out: Plant response rating, Pigweed
Procedure, shortened: as §1

[5] = system: giant foxtail (Setaria faberii); assay: Test A postemergence; conditions: Setaria faberi, post-emergence, 240 h; for pest or weed control at 125 g/ha: 125 g ai/ha, postemergence, visual injury rating after approximately 10 d, read-out: Foxtail, Giant plant response rating (0 to 100 scale, 0 no effect, 100 complete control); for pest or weed control at 31 g/ha: Postemergence, 31 g ai/ha, visual injury after approx. 10 d, 0 to 100 scale, 0 no effect, 100 complete control, read-out: Plant response rating, Foxtail, Giant
Procedure, shortened: as §1

[6] = system: barnyardgrass (Echinochloa crus-galli); assay: Test A postemergence; conditions: Echinochloa crus-galli, post-emergence, 240 h; for pest or weed control at 125 g/ha: 125 g ai/ha, postemergence, visual injury rating after approximately 10 d, read-out: Barnyardgrass plant response rating (0 to 100 scale, 0 no effect, 100 complete control); for pest or weed control at 31 g/ha: Postemergence, 31 g ai/ha, visual injury after approx. 10 d, 0 to 100 scale, 0 no effect, 100 complete control, read-out: Plant response rating, Barnyardgrass
Procedure, shortened: as §1

[7] = system: blackgrass (Alopecurus myosuroides); assay: Test A postemergence; conditions: Alopecurus myosuroides, post-emergence, 240 h; for pest or weed control at 125 g/ha: 125 g ai/ha, postemergence, visual injury rating after approximately 10 d, read-out: Blackgrass plant response rating (0 to 100 scale, 0 no effect, 100 complete control); for pest or weed control at 31 g/ha: Postemergence, 31 g ai/ha, visual injury after approx. 10 d, 0 to 100 scale, 0 no effect, 100 complete control, read-out: Plant response rating, Blackgrass
Procedure, shortened: as §1

corn (Zea mays) = assay: Test A postemergence; conditions: Zea mays, post-emergence, 240 h; for plant injury at 125 g/ha: 125 g ai/ha, postemergence, visual injury rating after approximately 10 d, read-out: Corn plant response rating (0 to 100 scale, 0 no effect, 100 complete control); for Corn plant response rating (crop injury, 0 = no effect, 100 = complete kill) at 31 g/ha: Postemergence, 31 g ai/ha, visual injury after approx. 10 d, 0 to 100 scale, 100 complete control
Procedure, shortened: as §1

[8] = system: Galium (catchweed bedstraw, Galium aparine); assay: Test A postemergence; conditions: Galium, post-emergence, 240 h; for pest or weed control at 125 g/ha: 125 g ai/ha, postemergence, visual injury rating after approximately 10 d, read-out: Galium plant response rating (0 to 100 scale, 0 no effect, 100 complete control); for pest or weed control at 31 g/ha: Postemergence, 31 g ai/ha, visual injury after approx. 10 d, 0 to 100 scale, 0 no effect, 100 complete control, read-out: Plant response rating, Galium
Procedure, shortened: as §1

[9] = system: ragweed (common ragweed, Ambrosia elatior); assay: Test A preemergence; conditions: Ambrosia artemisiifolia, pre-emergence, 240 h, read-out: Plant response rating, Ragweed; for pest or weed control at 125 g/ha: 125 g ai/ha, preemergence, visual rating after approx. 10 d, 0 to 100 scale where 0 is no effect and 100 is complete control; for pest or weed control at 31 g/ha: Preemergence, 31 g ai/ha, 0 to 100 scale (0 no effect, 100 complete control)
Procedure, shortened: as §1

Kochia (Kochia scoparia) [10] = assay: Test A preemergence; conditions: Bassia scoparia, pre-emergence, 240 h, read-out: Plant response rating, Kochia; for pest or weed control at 125 g/ha: 125 g ai/ha, preemergence, visual rating after approx. 10 d, 0 to 100 scale where 0 is no effect and 100 is complete control; for pest or weed control at 31 g/ha: Preemergence, 31 g ai/ha, 0 to 100 scale (0 no effect, 100 complete control)
Procedure, shortened: as §1

[11] = system: pigweed (Amaranthus retroflexus); assay: Test A preemergence; conditions: Amaranthus retroflexus, pre-emergence, 240 h, read-out: Plant response rating, Pigweed; for pest or weed control at 125 g/ha: 125 g ai/ha, preemergence, visual rating after approx. 10 d, 0 to 100 scale where 0 is no effect and 100 is complete control; for pest or weed control at 31 g/ha: Preemergence, 31 g ai/ha, 0 to 100 scale (0 no effect, 100 complete control)
[12] = system: giant foxtail (Setaria faberii); assay: Test A preemergence; conditions: Setaria faberi, pre-emergence, 240 h, read-out: Plant response rating, Foxtail, Giant; for pest or weed control at 125 g/ha: 125 g ai/ha, preemergence, visual rating after approx. 10 d, 0 to 100 scale where 0 is no effect and 100 is complete control; for pest or weed control at 31 g/ha: Preemergence, 31 g ai/ha, 0 to 100 scale (0 no effect, 100 complete control)
Procedure, shortened: as §1

[13] = system: barnyardgrass (Echinochloa crus-galli); assay: Test A preemergence; conditions: Echinochloa crus-galli, pre-emergence, 240 h, read-out: Plant response rating, Barnyardgrass; for pest or weed control at 125 g/ha: 125 g ai/ha, preemergence, visual rating after approx. 10 d, 0 to 100 scale where 0 is no effect and 100 is complete control; for pest or weed control at 31 g/ha: Preemergence, 31 g ai/ha, 0 to 100 scale (0 no effect, 100 complete control)
Procedure, shortened: as §1

[14] = system: ryegrass, Italian (Italian ryegrass, Lolium multiflorum); assay: Test A preemergence; conditions: Lolium multiflorum, pre-emergence, 240 h, read-out: Plant response rating, Ryegrass, Italian; for pest or weed control at 125 g/ha: 125 g ai/ha, preemergence, visual rating after approx. 10 d, 0 to 100 scale where 0 is no effect and 100 is complete control; for pest or weed control at 31 g/ha: Preemergence, 31 g ai/ha, 0 to 100 scale (0 no effect, 100 complete control)
Procedure, shortened: as §1

Compound	plant injury at 125 g/ha [1] [%]	plant injury at 31 g/ha [1] [%]	pest or weed control at 125 g/ha [2] [%]	pest or weed control at 31 g/ha [2] [%]	pest or weed control at 125 g/ha (Kochia (Kochia scoparia) [3]) [%]	pest or weed control at 31 g/ha (Kochia (Kochia scoparia) [3]) [%]	pest or weed control at 125 g/ha [4] [%]	pest or weed control at 31 g/ha [4] [%]	pest or weed control at 125 g/ha [5] [%]	pest or weed control at 31 g/ha [5] [%]	pest or weed control at 125 g/ha [6] [%]	pest or weed control at 31 g/ha [6] [%]	pest or weed control at 125 g/ha [7] [%]	pest or weed control at 31 g/ha [7] [%]	plant injury at 125 g/ha (corn (Zea mays)) [%]	Corn plant response rating (crop injury, 0 = no effect, 100 = complete kill) at 31 g/ha (corn (Zea mays)) [%]	pest or weed control at 125 g/ha [8] [%]	pest or weed control at 31 g/ha [8] [%]	pest or weed control at 125 g/ha [9] [%]	pest or weed control at 31 g/ha [9] [%]	other results
CN1CC[C@H](c2ccc3c(c2)OC(F)(F)O3)[C@@H](C(=O)Nc2cccc(F)c2F)C1=O [Compound 812]	60	20	0	0	20	0	0	0	90	70	90	90	80	40	80	30	50	20	0	0	pest or weed control at 125 g/ha (Kochia (Kochia scoparia) [10]): 0%; pest or weed control at 31 g/ha (Kochia (Kochia scoparia) [10]): 0%; pest or weed control at 125 g/ha [11]: 0%; pest or weed control at 31 g/ha [11]: 0%; pest or weed control at 125 g/ha [12]: 90%; pest or weed control at 31 g/ha [12]: 80%; pest or weed control at 125 g/ha [13]: 90%; pest or weed control at 31 g/ha [13]: 70%; pest or weed control at 125 g/ha [14]: 20%; pest or weed control at 31 g/ha [14]: 0%
CN1C[C@H](c2ccc(C(F)(F)F)c(Br)c2)[C@@H](C(=O)Nc2cccc(F)c2F)C1=O [Compound 804]	20	0	0	0	70	40	60	50	80	60	70	20	20	0	50	0	50	40	0	0	pest or weed control at 125 g/ha (Kochia (Kochia scoparia) [10]): 20%; pest or weed control at 31 g/ha (Kochia (Kochia scoparia) [10]): 0%; pest or weed control at 125 g/ha [11]: 60%; pest or weed control at 31 g/ha [11]: 0%; pest or weed control at 125 g/ha [12]: 80%; pest or weed control at 31 g/ha [12]: 70%; pest or weed control at 125 g/ha [13]: 90%; pest or weed control at 31 g/ha [13]: 70%; pest or weed control at 125 g/ha [14]: 50%; pest or weed control at 31 g/ha [14]: 40%
